For data set [1], the target named is T1, mOat3 (Mus musculus, UniProt O88909).
T1 construct: expressed in transfected cells; host or cells: CHO (Chinese hamster ovary), stably transfected (CHO-mOat3)
T1 sequence (O88909 1-537): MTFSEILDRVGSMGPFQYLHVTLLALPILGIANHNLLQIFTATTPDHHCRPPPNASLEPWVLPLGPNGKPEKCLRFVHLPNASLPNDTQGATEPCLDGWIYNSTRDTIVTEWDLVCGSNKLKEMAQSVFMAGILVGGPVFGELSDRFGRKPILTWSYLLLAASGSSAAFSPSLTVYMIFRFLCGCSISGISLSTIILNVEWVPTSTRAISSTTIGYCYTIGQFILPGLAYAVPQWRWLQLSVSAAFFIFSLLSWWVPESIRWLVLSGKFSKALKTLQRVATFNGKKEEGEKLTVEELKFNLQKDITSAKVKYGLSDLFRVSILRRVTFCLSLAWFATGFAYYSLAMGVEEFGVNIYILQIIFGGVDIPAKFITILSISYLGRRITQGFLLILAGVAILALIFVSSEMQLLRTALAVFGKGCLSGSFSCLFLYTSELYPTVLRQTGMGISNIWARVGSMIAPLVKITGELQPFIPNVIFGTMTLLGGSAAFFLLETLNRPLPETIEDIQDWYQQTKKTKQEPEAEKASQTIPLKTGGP
More on the design: method as in PMID 18381565. Particulars: CHO-mOat3 cells, determined previously; cited from earlier work.

The target in data set [2] is T2, mOat1 (Mus musculus, UniProt Q8VC69).
T2 construct: expressed in transfected cells; host or cells: CHO (Chinese hamster ovary), stably transfected (CHO-mOat1)
T2 sequence (Q8VC69 1-545): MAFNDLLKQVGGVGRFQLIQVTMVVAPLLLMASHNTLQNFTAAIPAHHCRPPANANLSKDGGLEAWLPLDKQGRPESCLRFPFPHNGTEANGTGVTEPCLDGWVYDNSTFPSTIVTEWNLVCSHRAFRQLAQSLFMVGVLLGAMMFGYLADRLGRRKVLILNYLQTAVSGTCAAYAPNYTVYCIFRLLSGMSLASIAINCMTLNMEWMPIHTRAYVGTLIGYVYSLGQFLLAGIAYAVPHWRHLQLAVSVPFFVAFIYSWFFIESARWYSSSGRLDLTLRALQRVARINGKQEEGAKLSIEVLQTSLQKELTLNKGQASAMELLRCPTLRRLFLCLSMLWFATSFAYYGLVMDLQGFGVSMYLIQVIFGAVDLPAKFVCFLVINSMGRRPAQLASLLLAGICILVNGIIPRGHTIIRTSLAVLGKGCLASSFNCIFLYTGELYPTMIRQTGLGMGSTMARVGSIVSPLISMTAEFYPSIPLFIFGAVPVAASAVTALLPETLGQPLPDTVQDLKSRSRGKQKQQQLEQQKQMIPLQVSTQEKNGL
The experiment in a line: Inhibition of mOat1-mediated [3H]PAH uptake in CHO-mOat1 cells (cell accumulation assay). Particulars: read-out: inhibition of mOat1-mediated PAH uptake. The format is cell-based, murine. How it is done: (§1) Derivation of the stably transfected Chinese hamster ovary (CHO) cell lines expressing mOat1 (CHO-mOat1), mOat3 (CHO-mOat3), and the empty vector (FRT) transfected control cell line (CHO-FRT) was described previously.
Cell transport assay procedures were adapted from those previously published. In brief, 2 × 10^5 cells/well were seeded in 24-well tissue culture plates and grown in the absence of antibiotics for 48 hr. On the day of the experiment, cells were equilibrated with transport buffer for 10 min (500 μL of Hanks' balanced salt solution containing 10 mM HEPES, pH 7.4). […] After incubation, cells were immediately rinsed three times with ice-cold transport buffer, lysed, and analyzed via liquid scintillation counting. Uptake values were normalized to corresponding total protein content in cell lysates as determined by the Bradford method. Substrate accumulation is reported as picomoles of substrate per milligram protein. […] Kinetic calculations were performed using GraphPad Prism Software version 5.0 (GraphPad Software Inc., San Diego, CA, USA). Michaelis constant (K m) values were calculated by nonlinear regression using the Michaelis-Menten model. […] In this study, three curves were constructed (no inhibitor, plus two selected inhibitor concentrations) with uptake of substrate plotted as a function of its concentration for each condition. […] The parameter, α, can then be used to determine the mode of inhibition. When α is very large (α > 1), it indicates competitive inhibition. […] Results were confirmed by repeating all experiments at least three times with triplicate wells for each data point in every experiment.
Figure 3 Michaelis-Menten kinetics of PAH transport in CHO-mOat1 cells. In order to calculate K i values for mOat1, the K m value for PAH needed to be determined in the CHO-mOat1 cell system. […] The corrected curve (closed circles) was obtained by subtracting the nonspecific background uptake as measured in the CHO-FRT cells from CHO-mOat1 accumulation to allow analysis of mOat1-mediated activity. Experiments were repeated three times in triplicate, and Michaelis constant (K m) values were calculated by nonlinear regression using the Michaelis-Menten model. […] Graph shown is from a representative experiment with values plotted as mean ± S.D. (n = 3).
Figure 2 Inhibition profile of mOat1 and mOat3. […] (b) Inhibition of mOat3-mediated uptake of [^3H]ES (1 μM) by LSA, PCA, RMA, SAA, SAB, TSL, and probenecid (1000 μM) was measured in the CHO-mOat3 cells (10 min). […] Values are mean ± S.D. of triplicate values. ***denotes P < 0.001 as determined by one-way ANOVA followed by Dunnett's t-test.
Figure 4 K i determination for LSA, RMA, and SAA in the CHO-mOat1 cell line. […] (5 μM) in CHO-mOat1 cells was measured in the presence of increasing concentrations (10^−7 to 5 × 10^−4 M) of LSA, RMA, and SAA. Data were corrected for nonspecific background measured in the CHO-FRT cells prior to kinetic analysis. K i values were determined with non-linear regression and the “one-site competition” model using GraphPad Prism software. Graphs shown are from representative experiments with values plotted as mean ± S.D. (n = 3).

Data set [3] addresses T1, mOat3. As to the kind of experiment: Inhibition of mOat3-mediated [3H]ES uptake in CHO-mOat3 cells (cell accumulation assay). Particulars: for inhibition at 1000 µM: read-out: inhibition of mOat3-mediated ES uptake. In kind it is cell-based, murine. As for the experimental part:
as §1
Cell transport assay procedures were adapted from those previously published. In brief, 2 × 10^5 cells/well were seeded in 24-well tissue culture plates and grown in the absence of antibiotics for 48 hr. On the day of the experiment, cells were equilibrated with transport buffer for 10 min (500 μL of Hanks' balanced salt solution containing 10 mM HEPES, pH 7.4). […] After incubation, cells were immediately rinsed three times with ice-cold transport buffer, lysed, and analyzed via liquid scintillation counting. Uptake values were normalized to corresponding total protein content in cell lysates as determined by the Bradford method. Substrate accumulation is reported as picomoles of substrate per milligram protein. […] Kinetic calculations were performed using GraphPad Prism Software version 5.0 (GraphPad Software Inc., San Diego, CA, USA). Michaelis constant (K m) values were calculated by nonlinear regression using the Michaelis-Menten model. Mode of inhibition was identified by using mixed model inhibition analysis as follows: (1) Vmax Apparent =Vmax/(1+[I]/(α×Ki)),Km Apparent=Km1+[I]/Ki/(1+[I]/(α×Ki)),Y=Vmax Apparent×x/Km Apparent+x, where V max, K i, and I represent the maximum transport velocity without inhibitor, the inhibition constant generated from the data set under analysis, and the concentration of inhibitor, respectively. In this study, three curves were constructed (no inhibitor, plus two selected inhibitor concentrations) with uptake of substrate plotted as a function of its concentration for each condition. […] The parameter, α, can then be used to determine the mode of inhibition. When α is very large (α > 1), it indicates competitive inhibition. Otherwise, it indicates noncompetitive inhibition (α = 1) or uncompetitive inhibition (0 < α < 1). To estimate K i values, IC50 values were calculated using nonlinear regression and inserted into the Cheng-Prusoff equation: K i = IC50/(1 + [Substrate]/K m). Results were confirmed by repeating all experiments at least three times with triplicate wells for each data point in every experiment.
Figure 2 Inhibition profile of mOat1 and mOat3. […] (5 μM) by LSA, PCA, RMA, SAA, SAB, TSL, and probenecid (1000 μM) was measured in the CHO-mOat1 cells (10 min). […] (b) Inhibition of mOat3-mediated uptake of [^3H]ES (1 μM) by LSA, PCA, RMA, SAA, SAB, TSL, and probenecid (1000 μM) was measured in the CHO-mOat3 cells (10 min). […] Values are mean ± S.D. of triplicate values. ***denotes P < 0.001 as determined by one-way ANOVA followed by Dunnett's t-test.
Figure 5 K i determination for LSA, RMA, and SAA in the CHO-mOat3 cell line. One minute uptake of [^3H]ES (1 μM) in CHO-mOat3 cells was measured in the presence of increasing concentrations (10^−7 to 4 × 10^−4 M) of LSA, RMA, and SAA. Data were corrected for nonspecific background measured in the CHO-FRT cells prior to kinetic analysis. K i values were determined with non-linear regression and the “one-site competition” model using GraphPad Prism software. Graphs shown are from representative experiments with values plotted as mean ± S.D. (n = 3).

In data set [4] the target is T2, mOat1. More on the design: method as in PMID 21546538. Particulars: cited from earlier work.
Data set [5] deals with T1, mOat3. More on the design: method as in PMID 21546538. Particulars: cited from earlier work.
In a further data set the test system is hOAT1. More on the design: method as in PMID 15870380. Particulars: cited from earlier work.
The target of data set [6] is T1, mOat3. More on the design: method as in PMID 19953504, PMID 17553798, PMID 18973812. Particulars: read-out: K i for mOat3; cited from earlier work.
The conditions of data set [7]: rats; cited from earlier work.
[8] abbreviates: 1 mM (1000 μM) inhibitor, 1 μM [3H]ES, 10 min, CHO-mOat3 cells.

Counter-ions that a name gives are not always drawn. Like-named read-outs stand apart in the source and are kept apart here.

Turning to `C[C@]12CC[C@@H]3c4ccc(OS(=O)(=O)O)cc4CC[C@H]3[C@@H]1CCC2=O` [ES, estrone sulfate], at mOat3 [1], the “K m of ES on mOat3” value was 12.2 ± 4.8 µM.

For `O=C(O)c1ccc(O)c(O)c1` [PCA, protocatechuic acid], the inhibition (usually the relative decrease from the control value, in per cent) at 1000 µM is over 95% at mOat1 [2] and over 91% at mOat3 [3].

With `COc1cccc2c1cc([N+](=O)[O-])c1c(C(=O)O)cc3c(c12)OCO3` [aristolochic acid], the “K m as substrate for mOat1” value at mOat1 [4] is 0.79 µM. Also, the “K m as substrate for mOat3” value on mOat3 [5] was 0.514 µM.

With `O=c1oc2c(O)c(O)cc3c(=O)oc4c(O)c(O)cc1c4c23` [ellagic acid], the IC50 (in general, the point on the concentration scale where inhibition reaches its midpoint) in the data set with hOAT1 is 0.207 µM.

For the compound `CCCN(CCC)S(=O)(=O)c1ccc(C(=O)O)cc1` [probenecid, reference compound], the inhibition at 1000 µM on mOat3 [3] (setting [8]) is over 91%. Further, the Ki on mOat3 [6] was 4.6 µM.

As to salvianolic acid B [SAB], the “inhibition of mOat3-mediated ES uptake” value on mOat3 [3] (setting [8]) is recorded as “approximately 53%”. Further, in data set [7], the “increase of AUC on spiking additional SAA into Danshen preparations” value is given as 82.4% and the “reduction of clearance on spiking additional SAA into Danshen preparations” value is given as 46.8%.

Values taken from PMC3403540, “Active Hydrophilic Components of the Medicinal Herb Salvia miltiorrhiza (Danshen) Potently Inhibit Organic Anion Transporters 1 (Slc22a6) and 3 (Slc22a8)” (Evidence-based Complementary and Alternative Medicine : eCAM, 2012).
